Experiment [1] has as its system immature male Wistar rats. In words: In vivo androgenicity, seminal vesicle wet weight after oral dosing for 5 days. To be noted: for Relative potency: DHT as reference (100%); for Increase seminal vesicle wet weight: once daily for 5 days, relative to vehicle treated rats. More on the design: species or system rat. The protocol: Groups of 5 immature male Wistar rats, weighing 50±2 grams, received either vehicle treatment or were administered 30 or 10 mg/kg/day test substance by oral gavage in a dosing volume of 10 ml per kg for 5 consecutive days. During the experiment, animals were housed in cages of 45×23×15 cm and maintained in a controlled temperature of 22-24° C. and humidity (60-80%) environment with 12 hours light/dark cycles. Food (lab diet, rodent diet, PMI nutrition international) and water intake was ad libitum.
The animals were sacrificed 24 hours after receiving the final dose and the wet weight of the seminal vesicle of each animal was recorded and average wet weight per group was calculated. Increase in average seminal vesicle wet weight relative to the average seminal vesicle wet weight of vehicle treated rats was considered indicative for in vivo androgenicity.

In experiment [2] the target is T1, human sex Hormone Binding Globulin (SHBG) (Homo sapiens, UniProt P04278).
T1 sequence (P04278 30-402): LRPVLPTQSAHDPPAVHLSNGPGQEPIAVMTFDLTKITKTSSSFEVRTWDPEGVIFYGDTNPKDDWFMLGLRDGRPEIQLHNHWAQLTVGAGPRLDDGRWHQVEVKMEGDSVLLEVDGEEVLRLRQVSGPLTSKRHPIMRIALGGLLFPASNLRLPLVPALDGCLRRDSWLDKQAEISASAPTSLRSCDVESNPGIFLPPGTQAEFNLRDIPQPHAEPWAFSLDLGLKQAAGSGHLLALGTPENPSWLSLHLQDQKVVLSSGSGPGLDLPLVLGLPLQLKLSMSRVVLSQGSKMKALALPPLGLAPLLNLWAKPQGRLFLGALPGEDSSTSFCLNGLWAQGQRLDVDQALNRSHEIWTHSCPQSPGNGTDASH
In words: Competitive steroid-binding assay, displacement of [3H]DHT from human SHBG. To be noted: [3H]DHT as labeled ligand, compared to DHT, T or DHEA (FIG. 1). On the technique in general: Loss of bound radioactivity is the signal in a displacement assay; it reports binding, not function.
Description: Human SHBG was treated for 30 min at room temperature with a dextran-coated charcoal (DCC) suspension in phosphate buffered saline (PBS) to remove any steroid ligand. After centrifugation (2,000×g for 10 min) to sediment the DCC, the supernatant containing the human SHBG was diluted in PBS to a concentration of 1 nM based on its steroid binding capacity.
Duplicate aliquots (100 μl) of this human SHBG solution were then incubated with an equal volume of [^3H]DHT at 10 nM, together with 100 μl of PBS alone or the same amount of PBS containing increasing concentrations of unlabeled steroid ligands as competitors in polystyrene test tubes. After incubation for 1 h at room temperature the reaction mixtures were placed in an ice bath for a further 15 min. […] The unbound ligands adsorbed to DCC were then removed by centrifugation (2,000×g for 15 min at 4° C.), and the amounts of [^3H]labeled DHT bound to SHBG were counted in 2 ml ACS scintillation cocktail using in liquid scintillation spectrophotometer. The average amounts of [^3H] labeled DHT bound to SHBG at each concentration of competitor (B) were expressed as a percentage of the average amounts of [^3H]labeled DHT bound to SHBG in the absence of competitor (T), and were plotted against the concentration of competitor in each assay tube.

A further experiment deals with T2, Recombinant rat AR (Rattus norvegicus, UniProt P15207).
T2 construct: made in house; host or cells: E. coli
T2 sequence (P15207 1-902): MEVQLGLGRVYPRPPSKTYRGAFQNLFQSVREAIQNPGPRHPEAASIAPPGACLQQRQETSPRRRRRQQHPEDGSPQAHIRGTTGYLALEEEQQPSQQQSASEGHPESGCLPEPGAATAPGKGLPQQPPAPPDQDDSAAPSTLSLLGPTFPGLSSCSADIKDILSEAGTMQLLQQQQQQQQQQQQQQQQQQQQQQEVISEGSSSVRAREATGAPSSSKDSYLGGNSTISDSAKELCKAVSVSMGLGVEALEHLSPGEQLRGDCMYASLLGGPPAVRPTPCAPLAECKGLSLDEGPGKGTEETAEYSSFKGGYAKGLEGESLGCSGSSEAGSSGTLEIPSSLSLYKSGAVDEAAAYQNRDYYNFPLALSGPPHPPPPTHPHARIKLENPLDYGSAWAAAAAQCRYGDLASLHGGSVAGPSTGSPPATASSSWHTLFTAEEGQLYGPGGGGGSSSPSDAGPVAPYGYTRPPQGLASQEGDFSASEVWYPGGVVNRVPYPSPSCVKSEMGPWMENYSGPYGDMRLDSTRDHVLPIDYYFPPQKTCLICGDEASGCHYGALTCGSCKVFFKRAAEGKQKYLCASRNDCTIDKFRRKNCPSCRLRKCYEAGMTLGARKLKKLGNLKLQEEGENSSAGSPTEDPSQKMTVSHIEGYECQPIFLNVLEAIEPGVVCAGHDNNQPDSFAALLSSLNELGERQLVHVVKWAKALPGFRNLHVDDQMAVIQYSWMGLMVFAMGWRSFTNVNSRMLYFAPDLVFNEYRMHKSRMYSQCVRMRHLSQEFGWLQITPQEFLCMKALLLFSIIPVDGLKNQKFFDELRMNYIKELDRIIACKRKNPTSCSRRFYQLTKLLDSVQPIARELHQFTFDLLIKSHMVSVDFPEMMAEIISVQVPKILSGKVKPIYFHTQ
Put plainly: Competitive steroid binding assay to the androgen receptor with [3H]mibolerone. As to conditions: for AR-binding Relative affinity: Ki value of DHT set at 100%; for Affinity to AR as compared to DHT and testosterone: orders of magnitude. The protocol:
Recombinant rat AR was expressed and purified from E. Coli. […] After incubation for 4 h at 4° C., the unbound ligands were removed and the amounts of [^3H]mibolerone bound to the AR was measured. The average amounts of [^3H]mibolerone bound to AR at each concentration of competitor were used to make inhibition curves. IC50 values were subsequently determined by a non-linear, least squares regression analysis.

Broadly, the Ki is a measure of affinity in units of concentration, obtained from inhibition or displacement. On to `C[C@]12CC[C@H]3[C@@H](CCC4=CC(=O)CC[C@@]43C)[C@@H]1[C@@H](O)C[C@@H]2O` [15α-hydroxytestosterone, 15α,17β-dihydroxy-4-androsten-3-one], for which, in experiment [1] (oral dose 10 mg/kg/day), the Relative potency stood at 560% and the “Increase seminal vesicle wet weight” value is 28%. Also, in experiment [1] (oral dose 30 mg/kg/day), the Relative potency was found to be 148% and the “Increase seminal vesicle wet weight” value came out at 40%. Moreover, in experiment [2], the “Binding to human SHBG” value is “do not bind human SHBG”. Further, at Recombinant rat AR, the inhibition constant (Ki) worked out at 1820 nM; the “AR-binding Relative affinity” value is on record as 0.05%; the “Affinity to AR as compared to DHT and testosterone” value was 2 to 3 orders of magnitude less affinity.
For the compound `C[C@]12CC[C@H]3[C@@H](CCC4=CC(=O)CC[C@@]43C)[C@@H]1C[C@H](O)[C@@H]2O` [16β-hydroxytestosterone, 16β,17β-dihydroxy-4-androsten-3-one], at Recombinant rat AR, the Ki came to 814 nM; the “AR-binding Relative affinity” value turned out to be 0.12%; the “Affinity to AR as compared to DHT and testosterone” value is 2 to 3 orders of magnitude less affinity.
In the case of `C[C@]12CC[C@H]3[C@@H](CCC4=CC(=O)CC[C@@]43C)[C@@H]1CC[C@@H]2O` [Testosterone, 17β-hydroxy-4-androsten-3-one, reference compound], the entries for the “Increase seminal vesicle wet weight” value in experiment [1] (oral dose 10 mg/kg/day) and in experiment [1] (oral dose 30 mg/kg/day) were 41% and 47%, respectively.
The corresponding values for `C[C@]12CCC(=O)C[C@@H]1CC[C@@H]1[C@@H]2CC[C@]2(C)[C@@H](O)CC[C@@H]12` [5α-dihydroxytestosterone, DHT, reference compound] are 5% and 27%.
Regarding `C[C@]12CC[C@H]3[C@@H](CCC4=CC(=O)CC[C@@]43C)[C@@H]1[C@H](O)C[C@@H]2O` [15β-hydroxytestosterone, 15β,17β-dihydroxy-4-androsten-3-one], in experiment [1] (oral dose 10 mg/kg/day), the Relative potency is given as 400% and the “Increase seminal vesicle wet weight” value is given as 20%. Besides, in experiment [1] (oral dose 30 mg/kg/day), the Relative potency is given as 130% and the “Increase seminal vesicle wet weight” value was 35%. Besides, the “Binding to human SHBG” value in experiment [2] is “do not bind human SHBG”. Further, at Recombinant rat AR, the Ki came to 557 nM; the “AR-binding Relative affinity” value was determined as 0.18%; the “Affinity to AR as compared to DHT and testosterone” value is 2 to 3 orders of magnitude less affinity.
